Measurements published in patent publication US9073821B2, “Hydroxamic acid derivative” (priority 2010, dated 2015).
≈ marks a conversion by molar mass, not a printed value. Like-named read-outs stand apart in the source and are kept apart here.

Tests used:
[1] = target: Pseudomonas aeruginosa LpxC enzyme (Pseudomonas aeruginosa (strain ATCC 15692 / DSM 22644 / CIP 104116 / JCM 14847 / LMG 12228 / 1C / PRS 101 / PAO1), UniProt P47205); assay: biochemical; type: biochemical
[2] = tested on: Pseudomonas aeruginosa strain TS88 (clinical isolate); assay: Antimicrobial activity, MIC by broth microdilution; type: cell-based; settings: Table 1, 35° C., 18 hours, read-out: MIC Pseudomonas aeruginosa TS88 strain
Excerpt: Test 3: Evaluation of Antimicrobial Activity For minimum inhibitory concentration (MIC) measurement, the following broth microdilution method was applied as adapted from the standard procedure recommended by the CLSI (Clinical and Laboratory Standards Institute). The bacteria used were Pseudomonas aeruginosa strain TS88 (clinical isolate), E. coli strain ATCC25922, and Klebsiella pneumoniae strain ATCC13883. After culture overnight on a heart infusion agar medium, the cells of a test bacterium were scraped off and suspended to give a turbidity of level 0.5 on the McFarland scale; the suspension was then diluted 10 fold to prepare an inoculum solution. A 0.005 mL aliquot of the inoculum solution was inoculated in a cation-adjusted Mueller-Hinton broth medium containing a test compound and cultured at 35° C. for 18 hours. A minimum drug concentration at which no cell growth was visible to the naked eye was designated as MIC.

[3] = Table 1, read-out: Pseudomonas aeruginosa LpxC IC50
[4] = inhibitory activity on Pseudomonas aeruginosa LpxC enzyme, class symbols A/B/C, read-out: Enzyme inhibitory activity

| IC50 [1, 4] [nM] | SMILES | IC50 [1, 3] [nM] | MIC [2] [µg/mL] | further results |
| --- | --- | --- | --- | --- |
|  | CNC(=O)C(C(=O)NO)N(C)C(=O)c1ccc(-c2ccc(OCCO)cc2)cc1 (stereo not drawn) [Compound 153, N-hydroxy-2-[{[4′-(2-hydroxyethoxy)biphenyl-4-yl]carbonyl}(methyl)amino]-N′-methylpropanediamide] | 5.7 | 2 (≈ 4.98 µM) |  |
|  | CNC(=O)C(C(=O)NO)N(C)C(=O)c1ccc(-c2ccc(OC(F)(F)F)cc2)cc1 (stereo not drawn) [Compound 52, N-hydroxy-N′-methyl-2-(methyl {[4′-(trifluoromethoxy)biphenyl-4-yl]carbonyl}amino)propanediamide] | 4.6 | 1 (≈ 2.35 µM) |  |
|  | CNC(=O)C(C(=O)NO)N(C)C(=O)c1ccc(-c2ccc3c(c2)CCN3C)cc1 (stereo not drawn) [Compound 40, N-hydroxy-N′-methyl-2-{methyl[4-(1-methyl-2,3-dihydro-1H-indol-5-yl)benzoyl]amino}propanediamide] | 4.7 | 1 (≈ 2.52 µM) |  |
|  | CNC(=O)C(C(=O)NO)N(C)C(=O)c1ccc(C#Cc2ccccc2)cc1 (stereo not drawn) [Compound 218, N-hydroxy-N′-methyl-2-{methyl[4-(phenylethynyl)benzoyl]amino}propanediamide] | 7.2 | 1 (≈ 2.74 µM) |  |
|  | CNC(=O)C(C(=O)NO)N(C)C(=O)c1ccc(-c2ccccc2)c(F)c1 (stereo not drawn) [Compound 61, 2-{[(2-fluorobiphenyl-4-yl)carbonyl](methyl)amino}-N-hydroxy-N′-methylpropanediamide] | 9.2 | 2 (≈ 5.57 µM) |  |
|  | CNC(=O)C(C(=O)NO)N(C)C(=O)c1ccc(-c2ccc(CF)cc2)cc1 (stereo not drawn) [Compound 237, 2-[{[4′-(fluoromethyl)biphenyl-4-yl]carbonyl}(methyl)amino]-N-hydroxy-N′-methylpropanediamide] | 4.5 | 0.5 (≈ 1.34 µM) |  |
|  | CNc1ccc(-c2ccc(C(=O)N(C)C(C(=O)NO)C(=O)NCc3cc(C)on3)cc2)cc1 (stereo not drawn) [Compound 77, N-hydroxy-2-(methyl {[4′-(methylamino)biphenyl-4-yl]carbonyl}amino)-N′-[(5-methyl-1,2-oxazol-3-yl)methyl]propanediamide] | 7.5 | 4 (≈ 8.86 µM) |  |
|  | CNC(=O)C(C(=O)NO)N(C)C(=O)c1ccc(-c2ccc(NCCCCCN3CCOCC3)cc2)cc1 (stereo not drawn) [Compound 58, N-hydroxy-N′-methyl-2-{methyl[(4′-{[5-(morpholin-4-yl)pentyl]amino}biphenyl-4-yl)carbonyl]amino}propanediamide] | 8.3 | 4 (≈ 7.82 µM) |  |
|  | Cc1cc(CNC(=O)C(C(=O)NO)N(C)C(=O)c2ccc(-c3ccccc3)cc2)no1 (stereo not drawn) [Compound 172, 2-[(Biphenyl-4-ylcarbonyl)(methyl)amino]-N-hydroxy-N′-[(5-methyl-1,2-oxazol-3-yl)methyl]propanediamide] | 7.1 | 2 (≈ 4.73 µM) |  |
|  | CNC(=O)C(C(=O)NO)N(C)C(=O)c1ccc(-c2ccc(OCCCN3CCOCC3)cc2)cc1 (stereo not drawn) [Compound 7, N-hydroxy-N′-methyl-2-[methyl({4′-[3-(morpholin-4-yl)propoxy]biphenyl-4-yl}carbonyl)amino]propanediamide] |  | 2 (≈ 4.13 µM) |  |
|  | CNC(=O)C(C(=O)NO)N(C)C(=O)c1ccc(-c2ccc(F)cc2)cc1 (stereo not drawn) [Compound 6, 2-{[(4′-fluorobiphenyl-4-yl)carbonyl](methyl)amino}-N-hydroxy-N′-methylpropanediamide] | 7.1 | 1 (≈ 2.78 µM) |  |
|  | CNC(=O)C(C(=O)NO)N(C)C(=O)c1ccc(-c2ccccc2)cc1 (stereo not drawn) [Compound 1, 2-[(Biphenyl-4-ylcarbonyl)(methyl)amino]-N-hydroxy-N′-methylpropanediamide] | 7.7 | 0.5 (≈ 1.46 µM) |  |
|  | CNC(=O)C(C(=O)NO)N(C)C(=O)c1ccc(-c2ccc(OCCCN3CCOCC3)cc2)cc1.Cc1ccc(S(=O)(=O)O)cc1 (stereo not drawn) [Compound 7b, N-hydroxy-N′-methyl-2-[methyl({4′-[3-(morpholin-4-yl)propoxy]biphenyl-4-yl}carbonyl)amino]propanediamide 4-methylbenzenesulfonate] |  | 2 |  |
| < 10 | CNC(=O)C(C(=O)NO)N(C)C(=O)c1ccc(-c2ccc(OCCCN3CCS(=O)(=O)CC3)cc2)cc1 (stereo not drawn) [Compound 289, 2-[({4′-[3-(1,1-dioxidothiomorpholin-4-yl)propoxy]biphenyl-4-yl}carbonyl)(methyl)amino]-N-hydroxy-N′-methylpropanediamide] |  |  |  |
| > 100 | CNC(=O)C(C(=O)NO)N(C)C(=O)c1ccc(-n2cccc2)cc1 (stereo not drawn) [Compound 307, N-hydroxy-N′-methyl-2-(methyl {[4-(1H-pyrrol-1-yl)phenyl]carbonyl}amino)propanediamide] |  |  |  |
| 10 to 100 | CNC(=O)C(C(=O)NO)N(C)C(=O)c1ccc(-c2ccc(CC(=O)N(C)C)cc2)cc1 (stereo not drawn) [Compound 265, 2-[({4′-[2-(dimethylamino)-2-oxoethyl]biphenyl-4-yl}carbonyl)(methyl)amino]-N-hydroxy-N′-methylpropanediamide] |  |  |  |

| IC50 [1, 4] [nM] | SMILES | IC50 [1, 3] [nM] | MIC [2] [µg/mL] | further results |
| --- | --- | --- | --- | --- |
|  | CCN1Cc2cc(C#Cc3ccc(C(=O)N(C)C(C(=O)NC)C(=O)NO)cc3)ccc2[C@H]1C (stereo partly drawn) [Compound 516, 2-{[(4-{[(1R)-2-ethyl-1-methyl-2,3-dihydro-1H-isoindol-5-yl]ethynyl}phenyl)carbonyl](methyl)amino}-N-hydroxy-N′-methylpropanediamide] |  |  | IC50 ([1]; class symbols A/B/C by IC50, Table 3, read-out: Enzyme inhibitory activity (inhibitory activity on Pseudomonas aeruginosa LpxC enzyme)): 10 to 100 nM |
| < 10 | CNC(=O)C(C(=O)NO)N(C)C(=O)c1ccc(-c2ccc(OCCCN3CCOC3=O)cc2)cc1 (stereo not drawn) [Compound 71, N-hydroxy-N′-methyl-2-[methyl({4′-[3-(2-oxo-1,3-oxazolidin-3-yl)propoxy]biphenyl-4-yl}carbonyl)amino]propanediamide] |  |  |  |
| < 10 | O=C(NC(C(=O)NO)C(=O)NCc1ccncc1)c1ccc(-c2ccc(OCCO)cc2)cc1 (stereo not drawn) [Compound 124, N-hydroxy-2-({[4′-(2-hydroxyethoxy)biphenyl-4-yl]carbonyl}amino)-N′-(pyridin-4-ylmethyl)propanediamide] |  |  |  |
| > 100 | CN(C)C(=O)C(C(=O)NO)N(C)C(=O)c1ccc(-c2ccccc2)cc1 (stereo not drawn) [Compound 80, 2-[(biphenyl-4-ylcarbonyl)(methyl)amino]-N′-hydroxy-N,N-dimethylpropanediamide] |  |  |  |
| 10 to 100 | CNC(=O)C(C(=O)NO)N(C)C(=O)c1ccc(C#Cc2cccc(CNC3CC3)c2)cc1 (stereo not drawn) [Compound 379, 2-[{[4-({3-[(cyclopropylamino)methyl]phenyl}ethynyl)phenyl]carbonyl}(methyl)amino]-N-hydroxy-N′-methylpropanediamide] |  |  |  |
| < 10 | CNC(=O)C(C(=O)NO)N(C)C(=O)c1ccc(-c2ccc(OCc3ccccc3)nc2)cc1 (stereo not drawn) [Compound 468, 2-[({4-[6-(benzyloxy)pyridin-3-yl]phenyl}carbonyl)(methyl)amino]-N-hydroxy-N′-methylpropanediamide] |  |  |  |
| 10 to 100 | CCNC(=O)C(C(=O)NO)N(C)C(=O)c1ccc(-c2ccccc2)cc1 (stereo not drawn) [Compound 242, 2-[(biphenyl-4-ylcarbonyl)(methyl)amino]-N-ethyl-N′-hydroxypropanediamide] |  |  |  |
| 10 to 100 | O=C(NC(C(=O)NO)C(=O)NCCO)c1ccc(-c2ccc(OCCO)cc2)cc1 (stereo not drawn) [Compound 122, N-hydroxy-2-({[4′-(2-hydroxyethoxy)biphenyl-4-yl]carbonyl}amino)-N′-(2-hydroxyethyl)propanediamide] |  |  |  |
| < 10 | CNC(=O)C(C(=O)NO)N(C)C(=O)c1ccc(-c2ccc(CCOC)cc2)cc1 (stereo not drawn) [Compound 246, N-hydroxy-2-[{[4′-(2-methoxyethyl)biphenyl-4-yl]carbonyl}(methyl)amino]-N′-methylpropanediamide] |  |  |  |
| 10 to 100 | CNC(=O)C(C(=O)NO)N(C)C(=O)c1ccc(C#Cc2ccc(CNC3CCC3)cc2)cc1 (stereo not drawn) [Compound 316, 2-[{[4-({4-[(cyclobutylamino)methyl]phenyl}ethynyl)phenyl]carbonyl}(methyl)amino]-N-hydroxy-N′-methylpropanediamide] |  |  |  |
| 10 to 100 | O=C(NC(C(=O)NO)C(=O)NC1CC1)c1ccc(-c2ccc(OCCO)cc2)cc1 (stereo not drawn) [Compound 121, N-cyclopropyl-N′-hydroxy-2-({[4′-(2-hydroxyethoxy)biphenyl-4-yl]carbonyl}amino)propanediamide] |  |  |  |
| < 10 | CNC(=O)C(C(=O)NO)N(C)C(=O)c1ccc(-c2ccc(C#CCO)cc2)cc1 (stereo not drawn) [Compound 389, N-hydroxy-2-[{[4′-(3-hydroxyprop-1-yn-1-yl)biphenyl-4-yl]carbonyl}(methyl)amino]-N′-methylpropanediamide] |  |  |  |
| < 10 | Cc1nnc(CNC(=O)C(NC(=O)c2ccc(-c3ccc(OCCO)cc3)cc2)C(=O)NO)s1 (stereo not drawn) [Compound 155, N-hydroxy-2-({[4′-(2-hydroxyethoxy)biphenyl-4-yl]carbonyl}amino)-N′-[(5-methyl-1,3,4-thiadiazol-2-yl)methyl]propanediamide] |  |  |  |
| 10 to 100 | CNC(=O)C(C(=O)NO)N(C)C(=O)c1ccc(-c2ccc(N(C)C(=O)OC(C)(C)C)c(C)c2)cc1 (stereo not drawn) [Compound 44, tert-butyl(4′-{[1-(hydroxyamino)-3-(methylamino)-1,3-dioxopropan-2-yl](methyl)carbamoyl}-3-methylbiphenyl-4-yl)methylcarbamate] |  |  |  |
| > 100 | CNC(=O)C(C(=O)NO)N(C)C(=O)c1ccc(C#Cc2ccccc2)cn1 (stereo not drawn) [Compound 455, N-hydroxy-N′-methyl-2-(methyl {[5-(phenylethynyl)pyridin-2-yl]carbonyl}amino)propanediamide] |  |  |  |
